PMC6274180, “Investigating Glycol-Split-Heparin-Derived Inhibitors of Heparanase: A Study of Synthetic Trisaccharides” (Molecules, 2016)

Biological target: T1, heparanase (Homo sapiens, UniProt Q9Y251)
T1 construct: gene HPSE
T1 sequence (Q9Y251 36-109): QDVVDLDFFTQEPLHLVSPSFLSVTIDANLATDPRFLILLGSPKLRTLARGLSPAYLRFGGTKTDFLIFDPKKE
T1 sequence (Q9Y251 158-543): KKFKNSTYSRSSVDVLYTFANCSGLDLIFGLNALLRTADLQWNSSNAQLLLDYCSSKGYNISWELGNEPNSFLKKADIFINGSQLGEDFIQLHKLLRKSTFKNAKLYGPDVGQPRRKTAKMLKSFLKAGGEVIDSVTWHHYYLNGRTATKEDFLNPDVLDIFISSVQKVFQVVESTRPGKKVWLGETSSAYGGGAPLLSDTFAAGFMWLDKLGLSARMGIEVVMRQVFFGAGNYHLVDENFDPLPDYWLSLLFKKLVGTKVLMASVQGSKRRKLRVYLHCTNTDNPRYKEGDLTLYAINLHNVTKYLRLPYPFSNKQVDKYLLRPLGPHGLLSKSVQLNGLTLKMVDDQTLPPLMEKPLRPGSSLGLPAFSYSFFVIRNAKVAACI
Assay: in vitro colorimetric (WST-1) heparanase inhibition assay with fondaparinux as substrate
Type: biochemical

IC50	Compound
39.9 µM	CO[C@H]1[C@H](O)[C@@H](NS(=O)(=O)O)[C@@H](O[C@H]2[C@H](O)[C@@H](O)[C@H](O[C@H]3[C@H](O)[C@@H](NS(=O)(=O)O)[C@@H]4OC[C@H]3O4)O[C@@H]2C(=O)O)O[C@@H]1COS(=O)(=O)O [compound 1]
2.65 µM	CO[C@H]1[C@H](O)[C@@H](NS(=O)(=O)O)[C@@H](O[C@@H](CO)[C@H](O[C@H](CO)O[C@H]2[C@H](O)[C@@H](NS(=O)(=O)O)[C@@H]3OC[C@H]2O3)C(=O)O)O[C@@H]1COS(=O)(=O)O [compound 2, sodium(2S,3S)-4-hydroxy-2-((R)-2-hydroxy-1-(((1R,2S,3R,4R,5R)-3-hydroxy-4-(sulfonatoamino)-6,8-dioxabicyclo[3.2.1]octan-2-yl)oxy)ethoxy)-3-(((2R,3R,4R,5S,6R)-4-hydroxy-5-methoxy-3-(sulfonatoamino)-6-((sulfonatooxy)methyl)tetrahydro-2H-pyran-2-yl)oxy)butanoate]
